Data: ChEMBL document CHEMBL3988442, “University of Dundee, Small-Polar-MMV Screening Library” (2021)
pIC50: −log10 of the molar value. “And” between values parts separate entries of the source, which are not always exact repeats. Identical values can stand only once.

Target: Polyketide synthase Pks13 (Mycobacterium tuberculosis (strain ATCC 25618 / H37Rv), UniProt I6X8D2)
Assay: Mycobacterium tuberculosis Polyketide synthase 13 Thioesterase (PKS13)
Assay type: functional

Polyketide synthase Pks13, sequence (I6X8D2 whole entry): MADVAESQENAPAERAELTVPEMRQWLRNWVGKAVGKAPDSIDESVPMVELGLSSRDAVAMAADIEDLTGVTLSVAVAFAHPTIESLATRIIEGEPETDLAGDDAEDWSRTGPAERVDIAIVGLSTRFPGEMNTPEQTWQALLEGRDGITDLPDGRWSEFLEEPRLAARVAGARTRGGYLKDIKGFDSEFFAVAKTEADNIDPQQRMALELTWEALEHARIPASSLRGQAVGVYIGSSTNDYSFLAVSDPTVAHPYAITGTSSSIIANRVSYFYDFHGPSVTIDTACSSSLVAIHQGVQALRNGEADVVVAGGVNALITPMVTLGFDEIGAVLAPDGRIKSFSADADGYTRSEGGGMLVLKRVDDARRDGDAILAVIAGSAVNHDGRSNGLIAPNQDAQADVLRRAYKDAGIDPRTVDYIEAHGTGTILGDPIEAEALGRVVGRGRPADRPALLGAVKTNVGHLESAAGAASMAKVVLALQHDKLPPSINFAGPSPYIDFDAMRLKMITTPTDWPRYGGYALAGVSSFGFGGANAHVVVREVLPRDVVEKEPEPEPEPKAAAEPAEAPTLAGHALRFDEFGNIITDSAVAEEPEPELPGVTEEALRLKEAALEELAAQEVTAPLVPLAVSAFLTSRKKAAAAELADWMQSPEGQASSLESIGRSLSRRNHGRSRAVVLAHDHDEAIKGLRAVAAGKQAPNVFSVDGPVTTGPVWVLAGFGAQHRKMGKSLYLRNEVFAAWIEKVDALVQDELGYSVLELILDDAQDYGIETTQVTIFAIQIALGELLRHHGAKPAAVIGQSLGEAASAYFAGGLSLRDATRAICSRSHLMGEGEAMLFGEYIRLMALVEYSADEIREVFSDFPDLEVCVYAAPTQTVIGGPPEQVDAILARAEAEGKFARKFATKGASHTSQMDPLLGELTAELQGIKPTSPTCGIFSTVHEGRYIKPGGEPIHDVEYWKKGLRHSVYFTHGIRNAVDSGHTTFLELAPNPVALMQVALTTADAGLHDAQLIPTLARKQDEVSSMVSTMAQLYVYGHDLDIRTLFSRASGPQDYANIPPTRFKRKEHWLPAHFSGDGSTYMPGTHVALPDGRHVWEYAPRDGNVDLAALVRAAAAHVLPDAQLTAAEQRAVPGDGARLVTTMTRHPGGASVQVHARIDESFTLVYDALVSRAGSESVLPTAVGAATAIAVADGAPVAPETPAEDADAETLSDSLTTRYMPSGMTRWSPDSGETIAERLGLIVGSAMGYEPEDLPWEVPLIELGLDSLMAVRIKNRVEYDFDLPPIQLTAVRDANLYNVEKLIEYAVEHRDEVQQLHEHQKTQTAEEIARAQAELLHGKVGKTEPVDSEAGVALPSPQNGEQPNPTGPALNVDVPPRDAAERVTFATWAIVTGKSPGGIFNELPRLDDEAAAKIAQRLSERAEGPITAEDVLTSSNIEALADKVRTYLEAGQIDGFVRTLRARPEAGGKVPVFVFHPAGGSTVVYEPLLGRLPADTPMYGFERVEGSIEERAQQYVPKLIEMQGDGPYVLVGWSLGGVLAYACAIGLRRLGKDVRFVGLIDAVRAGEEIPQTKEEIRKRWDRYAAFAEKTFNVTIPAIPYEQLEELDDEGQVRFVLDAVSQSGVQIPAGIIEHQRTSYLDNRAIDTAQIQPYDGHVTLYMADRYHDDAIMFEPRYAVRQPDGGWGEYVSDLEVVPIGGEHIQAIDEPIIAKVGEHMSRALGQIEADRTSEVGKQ

SMILES | pIC50
c1ccc(CCCN2CC[C@H](c3nnc(-c4ccccc4)o3)C2)cc1 | < 4.00
Cc1n[nH]c(C)c1CCC(=O)NCC1(O)CCN(c2ccccn2)C1 (stereo not given) | < 4.00
N#Cc1ccc(C(=O)O)nc1/C=C/c1cccc(Cl)c1 | < 4.00
COc1ccc(NC(C)C(=O)N2CCCC2)cn1 (stereo not given) | < 4.00
N#Cc1cccc(N2CCCC(CO)(CCOc3ccccc3)C2)n1 (stereo not given) | 4.46 and 5.18
Cc1cccc(OC2CCN(c3nccnc3C#N)CC2)n1 | 4.37 and 4.34
CC(NC(=O)CN(C)S(C)(=O)=O)c1nnc2n1CCCCC2 (stereo not given) | < 4.00
Cn1cc(-c2ccnc(NCC3CCN(Cc4ccccc4)C3)n2)cn1 (stereo not given) | < 4.00 and 4.22
COCCN1CCCC2(CCN(c3nccnc3N(C)C)C2)C1=O (stereo not given) | < 4.00
CCN1CCC(N[C@@H]2CC[C@@H]2NC(=O)Cc2csc(C)n2)CC1 | < 4.00
Nc1nccnc1CC1CCCN(Cc2ccnc3ccccc23)C1 (stereo not given) | < 4.00
Cc1cc(C2CCCCN2C(=O)c2ccsc2)nc2nccn12 (stereo not given) | < 4.00
Cc1noc([C@@H]2C[C@H]3OCC[C@H]3N(S(=O)(=O)c3cccnc3)C2)n1 | < 4.00
N#Cc1cccc(N2CCC(CO)(CCOc3ccccc3)CC2)n1 | 4.32 and 4.47
O=C(Nc1nc2c(s1)CN(S(=O)(=O)C1CC1)CC2)c1cccc(Cl)c1 | 4.91 and 4.70
COC(=O)c1ccc(NC2CCN(CC(F)(F)F)C2=O)cc1C (stereo not given) | < 4.00
CN(CC1CCCCC1)C(=O)c1ccc(-n2ncc(C#N)c2N)cc1 | 4.39 and 5.18
Cc1ccc(CNC(=O)NCCCn2nc3ccccn3c2=O)s1 | < 4.00
CC1(C(=O)NCc2cccnc2Oc2ccc(F)c(F)c2)CCCNC1 (stereo not given) | < 4.00
Cc1cc2c(N)nc(=O)n(CC(=O)Nc3ccccc3)c2s1 | < 4.00
CC(Nc1cnn(C)c(=O)c1Cl)c1ccc(F)c(F)c1 (stereo not given) | < 4.00
O=C(c1cnc2c(cnn2C2CCCC2)c1)N1CCN(CCO)CC1 | < 4.00
O=C(COCc1ccccc1Cl)N1CCN(c2ccc(Br)cn2)CC1 | 4.58 and 4.72
CN(C)c1ncnc2c1CCN(C(=O)c1cccnc1)CC2 | < 4.00

SMILES | pIC50
CC[C@H](C)[C@H](N)C(=O)Nc1nc(-c2cnc(N(C)C)nc2)cs1 | < 4.00
c1ccc2c(c1)CN(c1ncnc3sc4c(c13)CCNC4)CCO2 | < 4.00
NC(=O)N1CCCN(CCc2nc(-c3cccc(Cl)c3)no2)CC1 | < 4.00
CN(C)C(=O)c1cn[nH]c1C1(C)CCN(c2ncccn2)CC1 | < 4.00
COc1ccc(-c2ccnc3nc(N4CCCCC4)[nH]c(=O)c23)cc1 | 4.71 and 5.40
CCC[C@H]1CN(S(C)(=O)=O)C[C@@H]1NC(=O)c1ccc(COC)cc1 | < 4.00
CS(=O)(=O)N1CCCC1c1cccc(Cc2ccccc2F)n1 (stereo not given) | < 4.00
Cc1ccc(-c2cc(C(=O)NCCCc3csc(N)n3)[nH]n2)s1 | 5.03 and 4.77
COc1cccc(CN2CCC3(CCN(c4ncc(C)cn4)CC3)C2)c1 | < 4.00
Cc1cccc(-c2ccc(C(=O)NCC(C)(C)C(N)=O)c(=O)[nH]2)c1 | 4.60 and 4.50
O=C1CC(c2ccc(F)c(F)c2)c2snc(C(=O)O)c2N1 (stereo not given) | < 4.00
CS(=O)(=O)NCc1cc(-c2cc(F)cc(F)c2)nc(N2CC[C@H](O)C2)n1 | < 4.00
CC(C)NC(=O)[C@@H]1CN(C(=O)C2CC2)C[C@]12Cc1ccccc1C(=O)N2 | < 4.00
Cn1cc(C[C@H]2[C@H](N3CCOCC3)CCN2c2ncc(F)cn2)cn1 | < 4.00
O=C1CCCN1Cc1ncn2c1CN(C(=O)NC1CCCC1)CCC2 | < 4.00
Cc1cc(C)n(-c2cncc(NCCC(=O)NC(C)C)n2)n1 | 4.62 and 4.82
CN1CCc2ccc(NCc3cccs3)cc2C1=O | < 4.00
CCCn1nnc(NCc2ccc(-c3ccc(Br)cc3)o2)n1 | 4.53 and < 4.00
O=C(O)c1csc(S(=O)(=O)Nc2cccc(OCC(F)(F)F)c2)c1 | 4.44 and 4.69
Cc1n[nH]c(SCC(=O)N2C[C@H]3CC[C@@H]2CN(c2ncccn2)C3)n1 | < 4.00
CC(C)(C)C(=O)N1CCC(n2nc(-c3ccco3)ccc2=O)CC1 | < 4.00
CN(C[C@@H]1CCC[C@@H]2CN(c3ncccn3)C[C@@H]21)C1CC1 | < 4.00
Cc1ccc(C(=O)N2CCN(c3ncnc4nc(N)ccc34)CC2)o1 | < 4.00
O=C(c1ccco1)N1CCO[C@@H]2CN(c3ccccn3)CC[C@@H]2C1 | < 4.00

SMILES | pIC50
COc1cccc(-c2cc(NCC(=O)O)nc3[nH]ccc23)n1 | 4.52 and 4.45
CNc1cncc(C2CCCN2c2cc(C)ncn2)n1 (stereo not given) | 4.69 and 4.52
CCn1cc(-c2cc(C(F)F)n3nc(CC(=O)O)nc3n2)cn1 | 4.80 and 4.78
Cn1ncc2c1CN(Cc1cccnc1)CC2COCC1CC1 (stereo not given) | < 4.00
O=C(O)[C@]12CCCN(Cc3ccccn3)[C@@H]1CCN(c1cnccn1)C2 | < 4.00
CCc1nnc(Nc2cccc(C3CCN(C(C)=O)CC3)n2)s1 | < 4.00
CNc1cncc(C2CCCN2C(=O)Cn2c(=O)oc3ccccc32)n1 (stereo not given) | 4.52 and < 4.24
N#Cc1cccnc1N1CCCC(CO)(Cc2cccc(Cl)c2)C1 (stereo not given) | 4.57 and 4.63
CC(O)CN1CCC(CNCc2cccc(C(N)=O)c2)CC1 (stereo not given) | < 4.00
CCOCCC(=O)N1CCc2cccc(S(=O)(=O)N3CCOCC3)c2C1 | < 4.00 and 4.69
Cc1ncc(CN)c(-c2cn(C)c3ccccc23)n1 | 4.05 and < 4.00
CC(NC(=O)Nc1cccnc1N1CCCC1)c1nncn1C (stereo not given) | < 4.00
Cc1cnn(CC2CCCN2Cc2cc(=O)n3cc(C)ccc3n2)c1 (stereo not given) | < 4.00 and 4.02
CCN1CC(C(=O)N2CCN(c3nsc4ccccc34)CC2)CCC1=O (stereo not given) | 4.04 and 4.14
NC(=O)CCSc1ccccc1NCc1ccc(Cl)s1 | 5.16 and 5.17
CN(C)c1ccc(-c2nnc([C@H]3CCN(C4CCCCC4)C3)o2)cc1 | < 4.00
Cc1ccc(NC(=O)c2nc3c(s2)CCCN3C(=O)C2CC2)cn1 | < 4.00
CCNc1ncc(C(=O)N2CCc3c(nc(C)nc3N(C)C)C2)cn1 | < 4.00
CCc1noc(Cn2c(=O)c3c(C(F)(F)F)cc(C)nc3n2C)n1 | 4.44 and 4.46
CCOc1ccc2nc(CN3CCOC(CN)C3)ccc2c1 (stereo not given) | < 4.00
O=c1[nH]c(NC2CCCC2)nc2nccc(-c3cccs3)c12 | 5.08 and 4.66
Cc1cnn(CC(C)NCC(=O)NCCOc2ccccc2)c1 (stereo not given) | < 4.00
CC(C)N1Cc2cccc(NCC(=O)N(C)C3CCCCC3)c2C1 | < 4.00
CS(=O)(=O)CCCSc1n[nH]c(-c2ccc3c(c2)CCC3)n1 | 5.26 and 4.71

SMILES | pIC50
CCc1cccc(C)c1NC(=O)C1CC(=O)N(Cc2ccccn2)C1 (stereo not given) | < 4.00
Cn1ccc(C(=O)NC2CCN(c3ncccn3)CC2)cc1=O | < 4.00
CCc1nc2n(n1)CC(NCc1ncc(-c3ccccc3)o1)CC2 (stereo not given) | < 4.00
CCOCCN1Cc2ncn(C)c2C(COCC2CCOCC2)C1 (stereo not given) | < 4.00
Cc1ccc2nc(C(=O)N(C)[C@@H]3CC[C@@H](N4CCCC4)[C@@H]3O)cn2c1 | < 4.00
COc1ccc2[nH]cc(-c3ccnc(N4CCC(C)CC4)n3)c2c1 | 4.47 and 4.52
CCN(CC)C(=O)c1nnc2ccc(N3CCOCC3)cc2n1 | 5.21 and 4.80
c1csc(-c2noc(CCCN3CCCC3Cn3cncn3)n2)c1 (stereo not given) | < 4.00
Cc1csc2ncc(-c3ccnc(N4CCCC4)n3)c(=O)n12 | < 4.00
CCC(CNC(=O)COC)Oc1cccc(F)c1 (stereo not given) | < 4.00
COc1ccc(-c2cc(C[C@@H]3C[C@H](N(C)C)C3(C)C)no2)cc1 | 4.38 and < 4.00
CCOCCCNC(=O)c1cn(C(C)(C)C)c2ncccc12 | < 4.00
CCc1cnc(N2CC[C@H]3[C@@H]2CCC(=O)N3CC2CCOCC2)nc1 | < 4.00
CC(C)(C)OCCN1CCCC1c1nc(Cc2ccc(F)cc2)no1 (stereo not given) | < 4.00
O=C(NCc1ccc2c(c1)OCCO2)N1CCC(CO)CC1 | < 4.00
Cc1ccc(C(=O)N2CCC3(CC2)c2ccccc2[C@@H](N)[C@@H]3O)c(=O)[nH]1 | < 4.00
N#Cc1c(N2CCCN(C3CCOCC3)CC2)nc2ccccn12 | < 4.00
CSCc1ccc(N2CCC(C(O)Cc3ccccc3)CC2)nc1 (stereo not given) | < 4.00
COCc1nc(C(=O)OCC2CCN(c3ccccc3)C2)cs1 (stereo not given) | < 4.00 and 4.80
CC(=O)N1CCC(NC(=O)c2cc(Cl)ccc2O)CC1 | < 4.00 and 4.10
N#Cc1cc(C#N)c(SCC(=O)Nc2ccc(F)cc2)nc1N | 4.72 and 4.66
CSc1ccc2cc(CN(C)CCO)c(=O)[nH]c2c1 | 4.50
Nc1cc(C(=O)NCC2CCN(Cc3ccncc3F)C2)ccn1 (stereo not given) | < 4.00
NC(=O)c1cc(C2CC2)nc2ccc(F)cc12 | < 4.00

SMILES | pIC50
Cc1cc(S(=O)(=O)Nc2cccc(I)c2)sc1C(=O)O | 5.21 and 4.82
O=C(Nc1cc(CSCCO)ccn1)c1ccc(Cl)o1 | < 4.00 and 4.01
O=C(O)C1c2nc[nH]c2CCN1Cc1ccccc1-c1ccccc1 (stereo not given) | < 4.00
Cc1ccccc1S(=O)(=O)N[C@@H]1CC[C@@H](N2CCNC(=O)C2)[C@@H]1O | < 4.00
Cc1cccc(COc2ccc(NC(=O)C(C)NC(N)=O)c(C)c2)c1 (stereo not given) | < 4.00
Cc1nc(-c2ccc(Cl)s2)sc1C(=O)NCCS(N)(=O)=O | 4.48 and 4.68
Cc1ccc(C)c(-n2ncc(C(=O)NCC3COC(C)(C)O3)c2N)c1 (stereo not given) | < 4.00
COc1cccc(-c2noc(-c3ccc(NCC(C)C)nc3)n2)c1OC | 4.80 and 4.57
Cc1cc(C)n(-c2cncc(NCCNS(C)(=O)=O)n2)n1 | 4.68 and 5.09
OCC1(CCOc2ccccc2)CCCN(c2ccc(Cl)cn2)C1 (stereo not given) | 4.54 and 4.49
COc1cccc(N2CCN(C(=O)C(O)c3ccccc3Cl)CC2=O)c1 (stereo not given) | < 4.00
CC(C)OCc1ncn2c1CN(Cc1nccs1)CCC2 | < 4.00
Cc1nc(-c2ccc(Cl)s2)sc1C(=O)N(C)CC(N)=O | 4.51 and 4.36
CC(=O)N1CCCC1c1ccc(Br)cn1 (stereo not given) | < 4.00
CC(NC(=O)N1CCC(CO)CC1)c1csc2ccccc12 (stereo not given) | < 4.00
COCC1CCN(C(=O)c2cc(-c3ccco3)nc3c(Cl)cccc23)C1 (stereo not given) | 4.46 and < 4.00
Cn1cc(-c2ncc3c(c2C(=O)O)CCN(CC2CCOC2)C3)cn1 (stereo not given) | < 4.00
O=C(OCC1CCN(c2ccccc2)C1)c1cscn1 (stereo not given) | 4.52 and 5.38
Cc1cn2c(=O)c(-c3ccnc(N4CCC[C@@H]4CO)n3)cnc2s1 | < 4.00
Cc1cccc(C(C)CNS(=O)(=O)CCCC#N)c1 (stereo not given) | < 4.00
CCOCCN1CCN([C@@H]2c3ccccc3C3(CCNCC3)[C@H]2O)CC1 | < 4.00
Cc1nnsc1C(=O)N1CC[C@H](c2ccccc2)[C@@H]2[C@H]1CCCCN2C | < 4.00
Cc1nc(CNC(=O)N2CCN(c3ccc(Cl)cn3)CC2)sc1C | 4.37 and 4.50
Cc1ncc(CNCC(C)O)c2cc(C(=O)c3ccc(Br)cc3)oc12 (stereo not given) | < 4.00
